Assays:
[1] = Metabolic stability in human liver microsomes assessed as intrinsic clearance; format: ADME, Microsome; conditions: read-out: CLH
[2] = Metabolic stability in human liver microsomes assessed as half life; format: ADME, Microsome

Compound `O=C(Nc1ccc(C(F)(F)F)cc1)Nc1c[nH]c2ccc(F)cc12` has a CLint scaled [1] of 41 mL/min/kg and a half-life [2] of 30.4 min.

— ChEMBL document CHEMBL6121057, “Discovery of an Orally Bioavailable STING Inhibitor with In Vivo Anti-Inflammatory Activity in Mice with STING-Mediated Inflammation” (J Med Chem, 2025)
